Reference: US11767504B2, “Albumin compositions and methods of producing and using same” (Albcura Corporation, priority 2020, dated 2023)

Tested on: Insulin
Assay: Assay of insulin aggregation stabilization by various albumin (absorbance at 360 nm)
Assay type: biochemical
Conditions: 1−(A360 with albumin)/(A360 of (−) group), at time point where control A360 near 0.35; albumin samples 2 mg/mL mixed 1:1 with 0.7 mg/mL insulin working solution, 37° C.
Protocol: Various albumin samples were diluted to 2 mg/mL in purified water. An assay working solution was prepared containing 60 mM of HEPES (pH=7.4), 300 mM of NaCl, 30 mM of 2-mercaptoethanol, and 0.7 mg/mL of Insulin. In a 96-well plate, 100 μL of the assay working solution was mixed with 100 μL of each albumin sample. The plate was incubated at 37° C. inside a plate reader, and the absorbance at 360 nm was measured every 30 seconds for 60 minutes.
The absorbance data at 360 nm (A360) of each group was picked at the time point where the A360 of the control group (without albumin, labeled as (−)) was near 0.35. […] Stabilizing Efficiency %=1−(A360 of experimental group with albumin)/(A360 of (−) group)

fatty acid free BSA: Fatty acid-free BSA from Sigma Aldrich (A8806)
Stabilizing Efficiency: 53%
